SMILES strings stand for the structures. Values after ≈ are worked out from the molar mass of the structure shown. Active and inactive are the calls of the source. The rule behind the calls is not given here.

This is an account of results in ChEMBL document CHEMBL3045007, “Aryloxyacetic esters structurally related to -Asarone as potential antifungal agents” (2010).

Test [1] relates to Cryptococcus gattii species complex. The test can be described thus: Antifungal activity against Cryptococcus gattii after 48 hr by broth microdilution method. The following applies: for MIC50: Cryptococcus gattii species complex, 48 h. Format: functional, Cryptococcus bacillisporus. In general terms: In broth dilution the organism is exposed to a series of concentrations in liquid medium.

In test [2] the test system is Cryptococcus deneoformans. Description: Antifungal activity against Cryptococcus neoformans var. neoformans after 48 hr by broth microdilution method. It is filed as functional. The conditions noted are these: for MIC50: Cryptococcus deneoformans, 48 h.

In the case of `CCCCCOC(=O)COc1ccccc1` [N-AMYL PHENOXYACETATE], in test [1], the “MFC>99” value is 2 µg/mL (≈ 9 µM) and the MIC50 worked out at 2 µg/mL (≈ 9 µM). Moreover, in test [2], the “MFC>99” value stood at 64 µg/mL (≈ 288 µM) and the MIC50 turned out to be 16 µg/mL (≈ 72 µM).

In test [1], `COC(=O)COc1ccccc1OC` gave an MIC50 of 128 µg/mL (≈ 652 µM). For the same molecule, in test [2], the “MFC>99” value was greater than 64 µg/mL and the MIC50 amounted to 0.5 µg/mL (≈ 2.55 µM).

For the molecule `CCC(C)n1ncn(-c2ccc(N3CCN(c4ccc(OCC5COC(Cn6cncn6)(c6ccc(Cl)cc6Cl)O5)cc4)CC3)cc2)c1=O` (stereo not given) [ITRACONAZOLE], the MIC50 in test [1] and in test [2] was 0.03 µg/mL (≈ 0.0425 µM) in each case.

As for `CCCOC(=O)COc1ccc(C)cc1OC`, the result in test [1] (Cryptococcus bacillisporus) and in test [2] was Active. The MIC50 in test [1] turned out to be 0.25 µg/mL (≈ 1.05 µM); in test [2], 2 µg/mL (≈ 8.39 µM).

For the molecule `OC(Cn1cncn1)(Cn1cncn1)c1ccc(F)cc1F` [FLUCONAZOLE], the MIC50 in test [1] and in test [2] was 4 µg/mL (≈ 13.1 µM) throughout.

With `CCCCCOC(=O)COc1ccccc1OC`, the MIC50 in test [1] stood at 64 µg/mL (≈ 254 µM). For the same molecule, in test [2], the “MFC>99” value was greater than 64 µg/mL and the MIC50 worked out at 16 µg/mL (≈ 63.4 µM).

Consider `Cc1ccc(OCC(=O)OC(C)C)cc1` [ISOPROPYL 4-METHYLPHENOXYACETATE], for which, in test [1], the MIC50 came to 128 µg/mL (≈ 615 µM). Also, in test [2], the “MFC>99” value was greater than 64 µg/mL and the MIC50 worked out at 8 µg/mL (≈ 38.4 µM).

For the molecule `C[C@@H]1[C@H](O)[C@@H](C)/C=C/C=C/C=C/C=C/C=C/C=C/C=C/[C@H](O[C@@H]2O[C@H](C)[C@@H](O)[C@H](N)[C@@H]2O)C[C@@H]2O[C@](O)(C[C@@H](O)C[C@@H](O)[C@H](O)CC[C@@H](O)C[C@@H](O)CC(=O)O[C@H]1C)C[C@H](O)[C@H]2C(=O)O` [AMPHOTERICIN B], the MIC50 in test [1] and in test [2] was 0.12 µg/mL (≈ 0.13 µM) each time.

As for `COc1cc(C)ccc1OCC(=O)OC(C)C`, the “MFC>99” value in test [1] was found to be 0.25 µg/mL (≈ 1.05 µM). Also, the MIC50 in test [1] amounted to 0.25 µg/mL (≈ 1.05 µM); in test [2], 64 µg/mL (≈ 269 µM).

On to `CC(=O)N1CCN(c2ccc(OCC3COC(Cn4ccnc4)(c4ccc(Cl)cc4Cl)O3)cc2)CC1` (stereo not given) [KETOCONAZOLE], for which the MIC50 in test [1] turned out to be 0.06 µg/mL (≈ 0.113 µM); in test [2], 0.12 µg/mL (≈ 0.226 µM).

As to `CC[C@H](C)C[C@H](C)CCCCCCCCC(=O)N[C@H]1C[C@@H](O)[C@@H](NCCN)NC(=O)[C@@H]2[C@@H](O)CCN2C(=O)[C@H]([C@H](O)CCN)NC(=O)[C@H]([C@H](O)[C@@H](O)c2ccc(O)cc2)NC(=O)[C@@H]2C[C@@H](O)CN2C(=O)[C@H]([C@@H](C)O)NC1=O` [CASPOFUNGIN], the MIC50 in test [1] came to 16 µg/mL (≈ 14.6 µM); in test [2], 8 µg/mL (≈ 7.32 µM).

Regarding `COc1cc(C)ccc1OCC(=O)Oc1ccc(Cl)cc1`, in test [1], the “MFC>99” value amounted to 0.5 µg/mL (≈ 1.63 µM) and the MIC50 is 0.5 µg/mL (≈ 1.63 µM). Moreover, in test [2], the “MFC>99” value came to 0.25 µg/mL (≈ 0.815 µM) and the MIC50 is 0.25 µg/mL (≈ 0.815 µM).

In test [1], `CCCOC(=O)COc1cccc(OC)c1` showed an MIC50 of 64 µg/mL (≈ 285 µM). Moreover, in test [2], the “MFC>99” value is greater than 64 µg/mL and the MIC50 was found to be 0.5 µg/mL (≈ 2.23 µM).

In the case of `CCCCCOC(=O)COc1ccc(C)cc1OC`, in test [1], the “MFC>99” value turned out to be 0.5 µg/mL (≈ 1.88 µM) and the MIC50 came out at 0.5 µg/mL (≈ 1.88 µM). The same molecule gave an MIC50 in test [2] of 32 µg/mL (≈ 120 µM).

Broadly, the MIC50 is the lowest concentration that inhibits either 50% of growth or 50% of the strains tested, depending on the study. Lower therefore signals higher susceptibility.
